Data: paper PMC9576799, “Discovery of small molecule inhibitors that effectively disrupt IQGAP1-Cdc42 interaction in breast cancer cells” (Scientific Reports, 2022)

Legend:
MDA-MB-231 cells = assay: IncuCyte proliferation assay, MDA-MB-231; format: cell-based, human; conditions: 72 h; for effect on proliferation: up to 50 µM
Experimental: (§1) MDA-MB-231 and MCF7 cells were grown to confluence, detached using trypsin–EDTA cell dissociation buffer (Gibco 12604013) and counted. Cells were plated into 384-well, clear-bottom, black, tissue culture treated plates (Corning 3683) using an automatic dispenser (Thermo Multidrop Combi SMART) at densities of 2000 cells/10 µL/well for MDA-MB-231 cells and 4000 cells/10 µL/well for MCF7 cells in DMEM supplemented with 5% FBS. After 4 h incubation at 37 °C with 5% CO2, the growth medium was replaced with 10 µL medium containing compounds at 16-point 1:2 serial dilutions with the final highest concentration of 50 µM for each compound. All samples containing compounds were plated in triplicate. Cells in the first column of the plate were treated with 0.5% DMSO as control. The plates were placed into an Incucyte SX5 Live-cell imaging system (Sartorius) and phase images were taken at 6-h intervals for 72 h with 10X objective lens. The growth medium containing compounds or DMSO was replenished after 24 h. The images were analyzed, and the growth curves generated by the Incucyte software 2020A using the basic analyzer mode.

MCF7 cells = assay: IncuCyte proliferation assay, MCF7; format: cell-based, human; conditions: 72 h; for effect on proliferation: up to 50 µM
Experimental: as §1

control MCF7 cells = assay: CellTiter-Glo cell viability assay, control MCF7; format: cell-based, human; conditions: 72 h
Experimental: Selected hit compounds were tested in CellTiterGlo cell viability assays to determine their cytotoxic effect on IQGAP1 knockout and control MCF7 cells. Prior to the assay, we assessed cell proliferation to keep both cell lines at similar exponential growth rates within 80 h after plating. For this purpose, the cells were plated onto 384-well clear bottom black plates (Perkin Elmer, Ultra) at various cell densities (between 625 and 10,000 cells/50µL/well), spun down for 15 s, and placed into Incucyte SX5 (Essen BioScience) for automated bright-field channel reading every 4 h. […] For the cytotoxicity assays, cells were harvested with 0.05% trypsin, spun down at 125xg for 5 min, re-suspended in fresh DMEM supplemented with 5% (v/v) FBS, and seeded into 1536-well white solid bottom tissue culture-treated plates (Greiner One, #789173-F) at 600 cells/5µL/well for knockout cells and 300 cells/5µL/well for control cells using a Multidrop Combi dispenser (Thermo Fisher Scientific Inc.). One column on each plate was dispensed with growth medium only (no cells) to gauge the maximal potential cytotoxic effect (IC100 control). The plates were kept in a tissue culture incubator at 37 °C with 5% CO2 for ~ 20 h for attachment and recovery of the cells. The next day, selected compounds were pin-transferred into the wells in columns 5–48, 23nL/well at 7-point 1:3 serial dilution, in the range of 46 µM to 78 nM final assay concentration. DMSO was used as the vehicle control (IC0). The plates were covered with stainless steel cell culture Kalypsys lids and incubated at 37 °C with 5% CO2 under 95% humidity for 72 h.
Plates and reagents were equilibrated to room temperature and then 5 µL/well of CellTiter Glo (Promega, #G7570) reagent was dispensed with a Multidrop Combi dispenser to the assay plates. After incubation for 10 min at ambient temperature, the luminescence signal was read with a ViewLux instrument (Perkin Elmer) with one second exposure. Relative luminescent units (RLU) for each well were normalized to the median RLUs from DMSO control wells as […] and “no cells” control wells as 100% viability.

His-tagged GST = biological target: T1, His-tagged GST (Schistosoma japonicum, UniProt P08515); assay: HTRF counter-screen with His-GST; conditions: 100 nM His-GST
T1 construct: purchased Millipore #12-523
T1 sequence (P08515 whole entry): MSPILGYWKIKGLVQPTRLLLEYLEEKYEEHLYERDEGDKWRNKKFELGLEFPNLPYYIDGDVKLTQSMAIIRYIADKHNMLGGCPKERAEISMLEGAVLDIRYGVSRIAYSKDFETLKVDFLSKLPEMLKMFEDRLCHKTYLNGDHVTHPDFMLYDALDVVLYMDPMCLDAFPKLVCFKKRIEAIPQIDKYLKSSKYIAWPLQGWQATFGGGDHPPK
Experimental: Two different HTRF counter-screens were used to identify false positive hits. The two interacting proteins GST-IQGAP1-C and His-Cdc42-Q61L were replaced with His-tagged GST or Cdc42-Q61L containing GST at the N-terminus and His at the C-terminus (GST-Cdc42-Q61L-His).
The second counter-screen was performed with 100 nM His-tagged GST following the protocol described above.
Supplementary Table S2: Counter-screening HTRF protocol.
Step Parameter Value Description
1a Protein 4 µL 100 nM His-GST (final concentration), diluted in
1b Controls 4 µL Column 2: GST-IQGAP1-C protein only [1.5nM] final
Column 3: pre-mixed proteins (regular assay
2 Compounds 23 nL Selected compounds were pin-transferred from DMSO
HTRF α-His-XL (5 ng/µL, 3X working concentration) +
3 antibodies 2 µL α-GST-K (0.7 ng/µL 3X working concentration),
pre-mix mixed in binding buffer
4 Time 3 Incubation (ambient temperature)
5 Reagent 1 µL 2.8 M KF (7x)
6 Detector HTRF Envision plate reader (excitation: 340 nm, emission: […]

[1] = biological target: T2, endogenous IQGAP1/Cdc42 interaction (Homo sapiens, UniProt P46940+P60953); assay: Immunoprecipitation of endogenous IQGAP1 and co-precipitated Cdc42 in HEK293 cell lysates; format: binding; conditions: DMSO = 100% binding
T2 construct: endogenous in cells; host or cells: HEK293 cell lysate
T2 sequence (P46940 2-1657 limits assumed): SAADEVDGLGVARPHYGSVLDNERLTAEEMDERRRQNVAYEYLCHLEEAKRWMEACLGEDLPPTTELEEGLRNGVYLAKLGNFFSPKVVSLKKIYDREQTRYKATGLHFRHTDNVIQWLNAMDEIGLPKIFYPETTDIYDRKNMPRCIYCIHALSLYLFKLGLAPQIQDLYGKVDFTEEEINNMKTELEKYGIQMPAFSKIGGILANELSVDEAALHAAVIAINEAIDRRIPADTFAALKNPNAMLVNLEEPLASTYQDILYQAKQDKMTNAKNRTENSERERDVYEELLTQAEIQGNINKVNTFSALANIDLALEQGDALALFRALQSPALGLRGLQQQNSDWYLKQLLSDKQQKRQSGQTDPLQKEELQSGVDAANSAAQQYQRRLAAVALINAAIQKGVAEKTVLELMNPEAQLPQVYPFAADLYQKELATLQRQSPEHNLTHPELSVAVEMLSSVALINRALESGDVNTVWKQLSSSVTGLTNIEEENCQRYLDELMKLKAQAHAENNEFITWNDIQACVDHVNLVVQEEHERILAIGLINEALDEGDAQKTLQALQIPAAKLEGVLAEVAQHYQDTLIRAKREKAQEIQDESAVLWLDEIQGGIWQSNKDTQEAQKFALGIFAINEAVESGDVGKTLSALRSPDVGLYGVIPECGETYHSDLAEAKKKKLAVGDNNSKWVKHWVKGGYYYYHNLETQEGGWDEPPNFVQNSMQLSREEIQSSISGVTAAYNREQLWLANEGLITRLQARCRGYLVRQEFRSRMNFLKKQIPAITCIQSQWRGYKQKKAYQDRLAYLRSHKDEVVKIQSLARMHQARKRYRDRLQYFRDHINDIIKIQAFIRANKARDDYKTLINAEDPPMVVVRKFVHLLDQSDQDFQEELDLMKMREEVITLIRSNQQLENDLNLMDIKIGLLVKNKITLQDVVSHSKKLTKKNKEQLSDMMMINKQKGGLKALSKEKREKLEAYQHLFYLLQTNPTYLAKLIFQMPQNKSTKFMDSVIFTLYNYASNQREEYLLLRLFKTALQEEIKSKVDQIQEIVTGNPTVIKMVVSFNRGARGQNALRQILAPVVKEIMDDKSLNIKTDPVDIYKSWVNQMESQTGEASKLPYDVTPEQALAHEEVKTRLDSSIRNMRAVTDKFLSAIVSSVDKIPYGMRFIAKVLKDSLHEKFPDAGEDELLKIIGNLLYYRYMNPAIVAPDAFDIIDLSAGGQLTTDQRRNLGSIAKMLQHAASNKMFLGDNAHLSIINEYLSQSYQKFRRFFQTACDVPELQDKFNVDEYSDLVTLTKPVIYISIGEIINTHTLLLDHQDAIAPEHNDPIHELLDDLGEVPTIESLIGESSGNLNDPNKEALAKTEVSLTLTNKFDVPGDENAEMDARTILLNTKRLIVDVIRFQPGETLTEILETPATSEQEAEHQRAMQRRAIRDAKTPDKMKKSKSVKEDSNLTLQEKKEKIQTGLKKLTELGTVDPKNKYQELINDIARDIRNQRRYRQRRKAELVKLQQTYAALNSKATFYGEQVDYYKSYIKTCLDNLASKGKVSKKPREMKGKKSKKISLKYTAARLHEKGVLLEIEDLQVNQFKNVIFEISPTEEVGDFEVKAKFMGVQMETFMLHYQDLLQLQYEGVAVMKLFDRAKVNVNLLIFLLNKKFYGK
T2 sequence (P60953 1-188 limits assumed): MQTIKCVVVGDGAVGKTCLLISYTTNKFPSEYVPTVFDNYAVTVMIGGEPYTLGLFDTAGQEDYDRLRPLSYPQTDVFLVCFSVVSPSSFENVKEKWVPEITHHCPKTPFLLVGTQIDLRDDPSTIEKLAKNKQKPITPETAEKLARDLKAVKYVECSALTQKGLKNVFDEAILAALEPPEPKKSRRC
Experimental: Each compound was added to lysates from HEK293 cells at a final concentration of 50 µM and endogenous IQGAP1 was immunoprecipitated. DMSO alone was used as the negative control (100% binding).
HEK293 cells were plated in 10-cm dishes to reach 80% confluence. The following day, the cells were washed with ice-cold phosphate-buffered saline (PBS) and lysed with 500 µl of Buffer A (50 mM Tris–HCl, pH 7.4, 150 mM NaCl, and 1% Triton X-100) supplemented with complete protease and phosphatase inhibitors (Roche, Mannheim, Germany). Lysates were subjected to two rounds of sonication for 10 s each, and insoluble material was precipitated by centrifugation at 13,000 xg for 10 min at 4 °C. Supernatants were precleared with protein A-Sepharose beads for 1 h. DMSO (vehicle) or different concentrations of the compounds (0.2, 0.6, 1, 5, 16 or 50 µM) were added to equal amounts of protein lysates for 30 min. Protein A-Sepharose beads and anti-IQGAP1 polyclonal antibodies were then added for 2 h at 4 °C. Anti-rabbit IgG antibodies were used as the immunoprecipitation control. Samples were washed five times with Buffer A, resolved by SDS-PAGE and transferred to polyvinylidene fluoride (PVDF) membranes (Millipore Corp). Membranes were probed with anti-IQGAP1 and anti-Cdc42 antibodies. After secondary antibody detection, Western blots were imaged using a LI-COR Odyssey infrared imaging system (LI-COR, USA). Western blot quantification and analysis was conducted using Image Studio™ Lite (LI-COR Biosciences).

EC50 (MDA-MB-231 cells; confluency)	EC50 (MCF7 cells; confluency)	reduction of interaction between endogenous IQGAP1 and Cdc42 (mean) ([1]; 16 µM (Fig. 3b))	reduction of interaction between endogenous IQGAP1 and Cdc42 (mean) ([1]; 0.2 µM (Fig. 3b))	Structure (SMILES)	effect on proliferation (MDA-MB-231 cells)	effect on proliferation (MCF7 cells)	cytotoxicity efficacy (control MCF7 cells)	EC50 (control MCF7 cells; read-out: cytotoxicity EC50)	activity in His-GST counter-screen (His-tagged GST)	IC50 (control MCF7 cells; Homo sapiens, read-out: cytotoxicity EC50)	Emax (control MCF7 cells; Homo sapiens, read-out: cytotoxicity efficacy)
3.01 µM	6.54 µM			CCN(CC)CCn1c2ccccc2c2nc3ccc([N+](=O)[O-])cc3cc21 [MLS000332963]	dose-dependent inhibitory effect	dose-dependent inhibitory effect	47%	19.9 µM	inactive		
				Cc1cccc(NC(=O)c2c(NC(=O)C(F)(F)F)sc3c2CCCCC3)c1 [NCGC00098561]					not active	2.24 µM	~100%
		60%		CCN1CCN(c2ncc3c(n2)CCN(Cc2cc(Br)cs2)C3)CC1 [NCGC00131308]	dose-dependent inhibitory effect	dose-dependent inhibitory effect					
			47%	CCc1ccccc1Nc1ncnc2c1cnn2-c1ccc(Cl)cc1 [NCGC00138812]	dose-dependent inhibitory effect	dose-dependent inhibitory effect					
